Source: patent EP3290412A1, “HIV-1 NUCLEOCAPSID INHIBITORS” (Università degli Studi di Siena, priority 2016, dated 2018)

Assays:
[1] = tested on: HIV-1 reference strain NL4-3; assay: BiCycle assay (MT-2 then TZM-bl cells); type: cell-based
Outline: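 MT-2 cells were infected with NL4-3 in the presence of five-fold compound dilutions. After 72 h, the supernatant was passed to TZM-bl cells. Two days later, luciferase luminescence was read and IC50 calculated, giving a readout that spans the whole replication cycle.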

NC(11-55) = NC(11-55) (Human immunodeficiency virus type 1, UniProt P12493); assay: NC inhibition assay (NC-induced cTAR DNA destabilization, fluorescence); type: biochemical, HIV-1; conditions: single point screening; positive = >25% inhibition at 100µM
Outline: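 Doubly labelled cTAR (0.1 µM, Alexa488/Dabcyl) pre-complexed with 1 µM Zn-loaded NC(11-55) for 15 min, then compound added for a further 15 min; run at 20 °C in Tris-HCl pH 7.5, 30 mM NaCl, 0.2 mM MgCl2. Fluorescence read at ex 480/em 520 nm. IC50 taken from dose-response fit of % inhibition of NC-induced fluorescence increase.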

[2] = tested on: HIV-1 reference strain NL4-3; assay: MonoCycle assay (TZM-bl cells); type: cell-based
Outline: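 TZM-bl cells (20,000/well) were infected with NL4-3 in the presence of five-fold serial inhibitor dilutions. After 48 h, cells were lysed and luciferase luminescence (RLU) was counted. IC50 was derived from the RLU data.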

[3] = Human immunodeficiency virus 1, NL43, TZM-bl, read-out: BiCycle IC50 nM
[4] = Human immunodeficiency virus 1, NL43, TZM-bl, 48 h, read-out: Mono Cycle IC50 nM
[5] = Human immunodeficiency virus 1, NL43, MT-2 cells 72 hours then TZM-bl cells two days, NL4-3, read-out: BiCycle IC50
[6] = Human immunodeficiency virus 1, NL43, TZM-bl cells, NL4-3, 48 hours, read-out: Mono Cycle IC50

Structure (SMILES) | IC50 [1, 3] [nM] | inhibition at 100 µM (NC(11-55)) [%] | IC50 [2, 4] [nM] | IC50 [1, 5] [nM] | IC50 [2, 6] [nM]
C[C@H](NC(=O)c1nc(-c2ccc(C(=O)OCc3ccccc3)cn2)nc(O)c1O)C1CCCCC1 [Compound 70, benzyl (S)-6-(4-((1-cyclohexylethyl)carbamoyl)-5,6-dihydroxypyrimidin-2-yl)nicotinate] | 190 | > 25 | > 50000 | – | –
C[C@H](NC(=O)c1nc(-c2cc(C(=O)OCc3ccccc3)ccn2)nc(O)c1O)C1CCCCC1 [Compound 71, benzyl (S)-2-(4-((1-cyclohexylethyl)carbamoyl)-5,6-dihydroxypyrimidin-2-yl)isonicotinate] | 559 | > 25 | > 50000 | – | –
C[C@H](NC(=O)c1nc(-c2cc3ccccc3cn2)nc(O)c1O)C1CCCCC1 [Compound 72, (S)-N-(1-cyclohexylethyl)-5,6-dihydroxy-2-(isoquinolin-3-yl)pyrimidine-4-carboxamide] | 382 | > 25 | 13400 | – | –
Cc1cc(-c2nc(O)c(O)c(C(=O)N[C@H](C)C3CCCCC3)n2)nc2ccccc12 [Compound 73, (R)-N-(1-cyclohexylethyl)-5,6-dihydroxy-2-(4-methylquinolin-2-yl)pyrimidine-4-carboxamide] | – | > 25 | – | 358 | > 50000
C[C@@H](NC(=O)c1nc(-c2cc(C(=O)NCc3ccccc3)ccn2)nc(O)c1O)C1CCCCC1 [Compound 74, (R)-2-(4-(benzylcarbamoyl)pyridin-2-yl)-N-(1-cyclohexylethyl)-5,6-dihydroxypyrimidine-4-carboxamide] | – | > 25 | – | 299 | > 50000
C[C@H](NC(=O)c1nc(-c2ccc3ccccc3n2)nc(O)c1O)C1CCCCC1 [Compound 75, (S)-N-(1-cyclohexylethyl)-5,6-dihydroxy-2-(quinolin-2-yl)pyrimidine-4-carboxamide] | 752 | > 25 | > 50000 | – | –
Cc1ccnc(-c2nc(O)c(O)c(C(=O)NC3(C4CCCCC4)CC3)n2)c1 [Compound 84, N-(1-cyclohexylcyclopropyl)-5,6-dihydroxy-2-(4-methylpyridin-2-yl)pyrimidine-4-carboxamide] | – | > 25 | – | 1880 | 21200
CC(NC(=O)c1nc(-c2nccc3ccccc23)nc(O)c1O)C1CCC(F)(F)CC1 (stereo not drawn) [Compound 90, N-(1-(4,4-difluorocyclohexyl)ethyl)-5,6-dihydroxy-2-(isoquinolin-1-yl)pyrimidine-4-carboxamide] | – | > 25 | – | 1790 | > 50000
